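Grown in 96-well plates, cells were treated for 48 hours with each compound at five concentrations. Insufficient inhibition: endpoint recorded as highest concentration tested. The concentration for full growth arrest is given as TGI.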
Assays:
Assay in all cases: NCI-60 cell line screen, 48 h
[1] = tested on: 786-0 renal
[2] = tested on: A498 renal
[3] = tested on: A549 NSCLC
[4] = tested on: ACHN renal
[5] = tested on: BT-549 breast
[6] = tested on: CAKI-1 renal
[7] = tested on: CCRF-CEM leukemia
[8] = tested on: COLO 205 colon
[9] = tested on: DU-145 prostate
[10] = tested on: EKVX NSCLC
[11] = tested on: HCC-2998 colon
[12] = tested on: HCT-116 colon
[13] = tested on: HCT-15 colon
[14] = tested on: HL-60(TB) leukemia
[15] = tested on: HOP-62 NSCLC
[16] = tested on: HOP-92 NSCLC
[17] = tested on: HS 578T breast
[18] = tested on: HT29 colon
[19] = tested on: IGROV1 ovarian
[20] = tested on: K-562 leukemia
[21] = tested on: KM12 colon
[22] = tested on: LOX IMVI melanoma
[23] = tested on: M14 melanoma
[24] = tested on: MALME-3M melanoma
[25] = tested on: MCF7 breast
[26] = tested on: MDA-MB-231 breast
[27] = tested on: MDA-MB-435
[28] = tested on: MDA-N
[29] = tested on: MOLT-4 leukemia
[30] = tested on: NCI-H226 lung
[31] = tested on: NCI-H23 lung
[32] = tested on: NCI-H460 lung
[33] = tested on: NCI-H522 lung
[34] = tested on: NCI/ADR-RES ovarian
[35] = tested on: OVCAR-3 ovarian
[36] = tested on: OVCAR-4 ovarian
[37] = tested on: OVCAR-5 ovarian
[38] = tested on: OVCAR-8 ovarian
[39] = tested on: PC-3 prostate
[40] = tested on: RPMI-8226 leukemia
[41] = tested on: RXF 393 renal
[42] = tested on: SF-268 CNS
[43] = tested on: SF-295 CNS
[44] = tested on: SF-539 CNS
[45] = tested on: SK-MEL-2 melanoma
[46] = tested on: SK-MEL-28 melanoma
[47] = tested on: SK-MEL-5 melanoma
[48] = tested on: SK-OV-3 ovarian
[49] = tested on: SN12C renal
[50] = tested on: SNB-19 CNS
[51] = tested on: SNB-75 CNS
[52] = tested on: SR leukemia
[53] = tested on: SW-620 colon
[54] = tested on: T-47D breast
[55] = tested on: TK-10 renal
[56] = tested on: U251 CNS
[57] = tested on: UACC-257 melanoma
[58] = tested on: UACC-62 melanoma
[59] = tested on: UO-31 renal

## N#CC1=C(N)OC2=C(CCCc3ccccc32)C1c1ccc([N+](=O)[O-])cc1 (stereo not drawn)
[1]
  TGI: 42.6 µM
[2]
  TGI: 27.1 µM
[3]
  TGI: 74.6 µM
[4]
  TGI: 39.1 µM
[5]
  TGI: 23.9 µM
[6]
  TGI: > 100 µM
[7]
  TGI: 23.2 µM
[8]
  TGI: 31.7 µM
[9]
  TGI: 21.8 µM
[10]
  TGI: 43 µM
[11]
  TGI: 26.8 µM
[12]
  TGI: 26.1 µM
[13]
  TGI: 30.7 µM
[14]
  TGI: 28.2 µM
[15]
  TGI: 35.9 µM
[16]
  TGI: 57.9 µM
[17]
  TGI: > 100 µM
[18]
  TGI: 28.2 µM
[19]
  TGI: 54 µM
[20]
  TGI: 11.5 µM
[21]
  TGI: 32.5 µM
[22]
  TGI: 41.1 µM
[23]
  TGI: 28 µM
[24]
  TGI: 29.9 µM
[25]
  TGI: 36.4 µM
[26]
  TGI: > 100 µM
[27]
  TGI: 39.8 µM
[28]
  TGI: 38.2 µM
[29]
  TGI: 1.64 µM
[30]
  TGI: 52.5 µM
[31]
  TGI: 34.6 µM
[32]
  TGI: 47.7 µM
[33]
  TGI: 24.2 µM
[34]
  TGI: 31.6 µM
[35]
  TGI: 26.7 µM
[36]
  TGI: 75.4 µM
[37]
  TGI: 50.2 µM
[38]
  TGI: 39 µM
[39]
  TGI: 38.8 µM
[40]
  TGI: 13.1 µM
[41]
  TGI: 27.6 µM
[42]
  TGI: 32.7 µM
[43]
  TGI: 36.1 µM
[44]
  TGI: 35.2 µM
[45]
  TGI: 40.8 µM
[46]
  TGI: 35.2 µM
[47]
  TGI: 28.3 µM
[48]
  TGI: 92.1 µM
[49]
  TGI: 29 µM
[50]
  TGI: 45.7 µM
[51]
  TGI: > 100 µM
[52]
  TGI: 37.4 µM
[53]
  TGI: 35.5 µM
[54]
  TGI: 26.1 µM
[55]
  TGI: 84.9 µM
[56]
  TGI: 29.8 µM
[57]
  TGI: 32.4 µM
[58]
  TGI: 24.5 µM
[59]
  TGI: 24 µM

## Cc1cc(C)c([S@@](=O)O[C@@H]2[C@H]3OC(C)(C)O[C@H]3O[C@@H]2[C@H]2COC(C)(C)O2)c(C)c1
[1]
  TGI: 64.6 µM
[2]
  TGI: 47.2 µM
[3]
  TGI: > 100 µM
[4]
  TGI: 33.5 µM
[5]
  TGI: 30.6 µM
[6]
  TGI: 9.11 µM
[7]
  TGI: 88.7 µM
[8]
  TGI: 38.9 µM
[9]
  TGI: 89.2 µM
[10]
  TGI: 61.2 µM
[11]
  TGI: 41.7 µM
[12]
  TGI: 57 µM
[13]
  TGI: > 100 µM
[14]
  TGI: 28.7 µM
[15]
  TGI: 51.3 µM
[16]
  TGI: 38.4 µM
[17]
  TGI: > 100 µM
[18]
  TGI: 85.7 µM
[19]
  TGI: 18 µM
[20]
  TGI: 76.8 µM
[21]
  TGI: 40.2 µM
[22]
  TGI: 30.1 µM
[23]
  TGI: 59.4 µM
[24]
  TGI: 80.1 µM
[25]
  TGI: 57.9 µM
[26]
  TGI: 60.5 µM
[27]
  TGI: 40.2 µM
[28]
  TGI: 65.4 µM
[29]
  TGI: 43.3 µM
[30]
  TGI: 53.2 µM
[31]
  TGI: 89.5 µM
[32]
  TGI: 62.9 µM
[33]
  TGI: 24.1 µM
[34]
  TGI: 57 µM
[35]
  TGI: 41.6 µM
[36]
  TGI: 42.8 µM
[37]
  TGI: 83.9 µM
[38]
  TGI: 37.6 µM
[39]
  TGI: 41.2 µM
[40]
  TGI: 50.5 µM
[41]
  TGI: 36.3 µM
[42]
  TGI: 95.3 µM
[43]
  TGI: > 100 µM
[44]
  TGI: 39.5 µM
[45]
  TGI: 86.1 µM
[46]
  TGI: 90.5 µM
[47]
  TGI: 97.9 µM
[48]
  TGI: > 100 µM
[49]
  TGI: 42.7 µM
[50]
  TGI: > 100 µM
[51]
  TGI: 59.6 µM
[52]
  TGI: 49 µM
[53]
  TGI: 49.3 µM
[54]
  TGI: > 100 µM
[55]
  TGI: 59.7 µM
[56]
  TGI: 44.1 µM
[57]
  TGI: 46.2 µM
[58]
  TGI: 51.6 µM
[59]
  TGI: 33.2 µM

From PubChem BioAssay (NCI)
